One substance from patent US9446061B2, “Composition containing antibiotics and lysophosphatidylcholine for boosting immunity or treatment of bacterial infections” (priority 2011, dated 2016) can be followed below.

The test system of the assay is CPA-CLP sepsis mouse model. The assay can be described thus: Combination effects of LPC and antibiotics (colistin, tobramycin, fusidin) in CPA-CLP sepsis mouse model (SEP013); single i.v. 6 hrs after CLP. In kind it is in vivo, ICR mice. Particulars: mpk: LPC 5, DW286aa 5, Colistin 5, Tobra 4, Fusidin 80, LPC + Colistin 5 + 5, LPC + Tobra 5 + 4, LPC + Fusidin 5 + 80. An excerpt:
CPA is well known as an immunosuppressive agent. […] Then, the abdomen was closed following the general procedure.
Then, body weight and mortality changes were observed.

As for colistin, the Mortalities (1st CPA treat) came to 0; the Mortalities (2nd CPA treat) is 0; the Mortalities (At CLP (day 0)) came out at 0; the Mortalities (Day 1) was 1; the Mortalities (Day 2) is reported as 5; the Mortalities (Day 3) amounted to 2. For the same substance, the Mortalities (Total) is reported as 9. Further, the Survivalities by setting is: (1st CPA treat) 100%; (2nd CPA treat) 100%; (At CLP (day 0)) 100%; (Day 1) 90%; (Day 2) 40%; (Day 3) 20%. The Survivalities (Total) is 20%.
